Measured values: patent US4822800A (Ortho Pharmaceutical Corporation, priority 1986, dated 1989)
“Also recorded” adds a separate entry of the source. Where two headings read alike, the source gives them in different places.

Tests used:
adult mongrel dogs [1] = assay: renal vasodilating activity in anesthetized dogs; format: in vivo, dog (adult mongrel); settings: for change in vivo at 1.2 mg/kg: dose 1.2 mg/kg intravenous; for renal vasodilating activity (in words): summary of Table 4; for change in vivo at 0.2 mg/kg: dose 0.2 mg/kg intravenous
Description: Goldberg et al, J. Pharmacol. Exp. Ther., 163, 188 (1968), performed an investigation of the structural requirements for dopamine-like renal vasodilation of phenethylamines and apomorphine. The following procedure is a variation of the assay described in that report.
Adult mongrel dogs were anesthetized and surgically prepared for electromagnetic measurement of renal artery blood flow. A carotid artery was cannulated for measuring arterial blood pressure, and drugs were administered intravenously. Heart rate was monitored with a cardiotachometer. Renal vascular resistance was calculated as the ratio of mean arterial blood pressure/renal artery blood flow. Dopamine was infused intravenously at 3 μg/kg/min for ten minutes (at an infusion rate of about 1 ml/min) to determine responsiveness of each dog to renal dopamine receptor stimulation. Cumulative dose-response data were obtained by infusing a compound of this invention at progressively increasing (usually three-fold) infusion rates, each dose being infused for five minutes. The maximum % increase from pre-drug control in renal artery blood flow (or a decrease in renal vascular resistance) was determined for each infusion dose.
RBF values are percent change in renal blood flow. RVR values are percent change in renal vascular resistance. MABP and HR are percent changes in mean arterial blood pressure and heart rate, respectively, relative to controls.

adult mongrel dogs [2] = assay: acute in vivo cardiotonic activity in anesthetized dogs; parameters: species or system dog (adult mongrel); settings: for change in vivo at 0.025 mg/kg / change in vivo at 0.875 mg/kg / change in vivo at 0.15 mg/kg / change in vivo at 0.925 mg/kg / change in vivo at 0.375 mg/kg: Canis lupus familiaris, cardiotonic, relative to controls; for change in vivo at 0.025 mg/kg: dose 0.025 mg/kg intravenous; for cardiotonic activity (in words): summary of Table 4; for change in vivo at 0.875 mg/kg: dose 0.875 mg/kg intravenous; for change in vivo at 0.15 mg/kg: dose 0.150 mg/kg intravenous; for change in vivo at 0.925 mg/kg: dose 0.925 mg/kg intravenous; for change in vivo at 0.375 mg/kg: dose 0.375 mg/kg intravenous
Description: The acute in vivo cardiotonic activity of compounds prepared according to the present invention was determined according to a modification of the procedure described by Alousi et al., Circ. Res., 45, 666 (1979).
In particular, adult mongrel dogs were anesthetized with sodium pentobarbital and were artificially respired. Arterial pressure was monitored via a femoral artery, and the pulse pressure was used to trigger a cardiotachometer for heart rate. Left ventricular pressure was determined with a Millar catheter, and dP/dt (the change in ventricular pressure with time) was derived. Cardiac output was determined by measuring ascending aortic blood flow with an electromagnetic flow probe, and myocardial contractile force was measured with a Walton Brodie strain gauge sutured to the right ventricle. Lead II EKG was also recorded.
A standard dose (10 μg/kg/min) of dopamine was administered to assess myocardial responsiveness.
Compounds of the invention were administered by intravenous infusion or bolus […] administration, and the effects on cardiovascular parameters were determined.
Dose related effects of the test compound on blood pressure (BP), heart rate (HR), maximum change in left ventricular pressure with time (dP/dt max),% change in cardiac force (CF) and the increase in mean arterial blood pressure relative to controls (MABP) were compared to pretreatment control values, expressed as a% change and rated for activity.

[3] = target: T1, Phosphodiesterase fraction III (Canis lupus familiaris, UniProt A0A8I3NYE0); assay: inhibition of phosphodiesterase fraction III activity; format: biochemical, canine (heart); settings: for IC50: cyclic AMP 0.10-1.0 uM, pH 7.4, canine heart enzyme; for phosphodiesterase fraction III inhibition (in words): summary of Table 5
T1 construct: isolated as an isozyme from the crude canine heart homogenate; from tissue; host or cells: canine heart (crude homogenate, ion exchange chromatography, third and last PDE peak)
T1 sequence (A0A8I3NYE0 1-1135): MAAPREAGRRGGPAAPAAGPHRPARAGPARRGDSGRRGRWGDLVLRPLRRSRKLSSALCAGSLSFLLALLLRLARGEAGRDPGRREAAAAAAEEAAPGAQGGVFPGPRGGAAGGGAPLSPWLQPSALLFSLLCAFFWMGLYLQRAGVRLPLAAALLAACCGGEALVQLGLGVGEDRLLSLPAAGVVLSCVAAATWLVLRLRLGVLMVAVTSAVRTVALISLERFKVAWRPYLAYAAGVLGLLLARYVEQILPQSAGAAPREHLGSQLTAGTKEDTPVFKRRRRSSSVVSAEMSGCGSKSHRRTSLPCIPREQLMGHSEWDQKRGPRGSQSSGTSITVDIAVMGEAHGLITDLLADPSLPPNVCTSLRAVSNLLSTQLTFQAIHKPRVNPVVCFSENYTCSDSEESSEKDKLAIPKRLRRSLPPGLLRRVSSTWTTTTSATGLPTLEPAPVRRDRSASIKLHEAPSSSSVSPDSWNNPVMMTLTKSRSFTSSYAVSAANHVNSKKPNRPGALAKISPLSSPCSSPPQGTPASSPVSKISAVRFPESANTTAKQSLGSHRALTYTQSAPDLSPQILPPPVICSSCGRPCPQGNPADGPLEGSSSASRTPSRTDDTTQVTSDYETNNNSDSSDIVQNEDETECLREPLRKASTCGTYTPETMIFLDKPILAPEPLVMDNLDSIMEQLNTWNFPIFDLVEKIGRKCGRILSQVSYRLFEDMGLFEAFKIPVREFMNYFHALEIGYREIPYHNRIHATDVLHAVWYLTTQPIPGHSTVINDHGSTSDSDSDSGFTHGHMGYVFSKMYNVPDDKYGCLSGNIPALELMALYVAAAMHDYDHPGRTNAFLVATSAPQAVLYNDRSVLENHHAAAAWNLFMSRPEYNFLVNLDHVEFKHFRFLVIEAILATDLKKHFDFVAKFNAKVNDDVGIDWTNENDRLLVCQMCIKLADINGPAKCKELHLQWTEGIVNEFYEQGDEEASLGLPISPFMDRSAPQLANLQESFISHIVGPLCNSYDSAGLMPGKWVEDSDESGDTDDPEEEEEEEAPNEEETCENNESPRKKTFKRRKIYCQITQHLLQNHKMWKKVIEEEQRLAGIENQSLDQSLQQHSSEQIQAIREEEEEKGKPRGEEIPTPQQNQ

[4] = Canis lupus familiaris, renal vasodilator, relative to controls, read-out: RBF (renal blood flow)
[5] = Canis lupus familiaris, renal vasodilator, relative to controls, read-out: RVR (renal vascular resistance)
[6] = read-out: MABP (mean arterial blood pressure)
[7] = read-out: dP/dt (maximum change left ventricular pressure with time)
[8] = Canis lupus familiaris, renal vasodilator, relative to controls, read-out: HR (heart rate)
[9] = Canis lupus familiaris, renal vasodilator, relative to controls, read-out: MABP (mean arterial blood pressure)

IC50 [3] [µM]	SMILES	change in vivo at 1.2 mg/kg (adult mongrel dogs [1]; [4]) [%]	change in vivo at 1.2 mg/kg (adult mongrel dogs [1]; [5]) [%]	renal vasodilating activity (in words) (adult mongrel dogs [1])	cardiotonic activity (in words) (adult mongrel dogs [2])	phosphodiesterase fraction III inhibition (in words) [3]	change in vivo at 0.875 mg/kg (adult mongrel dogs [2]; read-out: CF (cardiac force)) [%]	change in vivo at 0.875 mg/kg (adult mongrel dogs [2]; read-out: HR (heart rate)) [%]	change in vivo at 0.875 mg/kg (adult mongrel dogs [2]; [6]) [%]	change in vivo at 0.875 mg/kg (adult mongrel dogs [2]; [7]) [%]	change in vivo at 0.2 mg/kg (adult mongrel dogs [1]; [4]) [%]	change in vivo at 0.2 mg/kg (adult mongrel dogs [1]; [5]) [%]	change in vivo at 1.2 mg/kg (adult mongrel dogs [1]; [8]) [%]	change in vivo at 1.2 mg/kg (adult mongrel dogs [1]; [9]) [%]	also measured
2.4	CCc1c(O)nc(C)c2cc(OC)c(OC)cc12 [Compound Z, 4-ethyl-3-hydroxy-6,7-dimethoxy-1-methylisoquinoline]	10	-38	renal vasodilating properties	cardiotonic properties	inhibit phosphodiesterase fraction III activity; also recorded: phosphodiesterase fraction III inhibiting properties	–	–	–	–	–	–	–	–	change in vivo at 0.025 mg/kg (adult mongrel dogs [2]; read-out: CF (cardiac force)): 143%; change in vivo at 0.025 mg/kg (adult mongrel dogs [2]; read-out: HR (heart rate)): 13%; change in vivo at 0.025 mg/kg (adult mongrel dogs [2]; [6]): -12%; change in vivo at 0.025 mg/kg (adult mongrel dogs [2]; [7]): 98%
40	COC(=O)CCc1c(O)nc(C)c2cc(OC)c(OC)cc12 [Compound B, 4-(β-Carbomethoxyethyl)-3-hydroxy-6,7-dimethoxy-1-methylisoquinoline]	–	–	renal vasodilating properties	cardiotonic properties	inhibit phosphodiesterase fraction III activity; also recorded: phosphodiesterase fraction III inhibiting properties	140	34	-12	78	–	–	–	–	change in vivo at 13.9 mg/kg (adult mongrel dogs [1]; Canis lupus familiaris, renal vasodilator, dose 13.9 mg/kg intravenous, relative to controls, read-out: HR (heart rate)): 12%; change in vivo at 13.9 mg/kg (adult mongrel dogs [1]; Canis lupus familiaris, renal vasodilator, dose 13.9 mg/kg intravenous, relative to controls, read-out: MABP (mean arterial blood pressure)): -28%; change in vivo at 13.9 mg/kg (adult mongrel dogs [1]; Canis lupus familiaris, renal vasodilator, dose 13.9 mg/kg intravenous, relative to controls, read-out: RBF (renal blood flow)): 15%; change in vivo at up to 13.9 mg/kg (adult mongrel dogs [1]; Canis lupus familiaris, renal vasodilator, dose 13.9 mg/kg intravenous, relative to controls, read-out: RVR (renal vascular resistance)): -38%
10	Br.COc1cc2c(C)nc(O)c(Br)c2cc1OC.O [Compound AC, 4-Bromo-3-hydroxy-6,7-dimethoxy-1-methylisoquinoline Hydrobromide Monohydrate]	–	–	–	–	inhibit phosphodiesterase fraction III activity	128	26	-40	25	8	-27	–	–	–
12.3	COc1cc2c(C)nc(O)c(C(C)C)c2cc1OC [AF]	–	–	renal vasodilating properties	cardiotonic properties	inhibit phosphodiesterase fraction III activity; also recorded: phosphodiesterase fraction III inhibiting properties	–	–	–	–	11	-24	–	–	change in vivo at 0.2 mg/kg (adult mongrel dogs [1]; [8]): 28%; change in vivo at 0.2 mg/kg (adult mongrel dogs [1]; [9]): -16%; change in vivo at 0.15 mg/kg (adult mongrel dogs [2]; read-out: CF (cardiac force)): 92%; change in vivo at 0.15 mg/kg (adult mongrel dogs [2]; read-out: HR (heart rate)): 8%; change in vivo at 0.15 mg/kg (adult mongrel dogs [2]; [6]): -15%; change in vivo at 0.15 mg/kg (adult mongrel dogs [2]; [7]): 60%
160	COc1ccc2c(C)nc(O)cc2c1 [AI]	7	-7	–	–	–	–	–	–	–	–	–	4	-1	change in vivo at 0.925 mg/kg (adult mongrel dogs [2]; read-out: CF (cardiac force)): 65%; change in vivo at 0.925 mg/kg (adult mongrel dogs [2]; read-out: HR (heart rate)): 8%; change in vivo at 0.925 mg/kg (adult mongrel dogs [2]; [6]): 0%; change in vivo at 0.925 mg/kg (adult mongrel dogs [2]; [7]): 56%
37	CCCCOc1cc2c(C)nc(O)cc2cc1OC [AL]	13	-17	renal vasodilating properties	cardiotonic properties	inhibit phosphodiesterase fraction III activity; also recorded: phosphodiesterase fraction III inhibiting properties	–	–	–	–	–	–	9	-6	change in vivo at 0.375 mg/kg (adult mongrel dogs [2]; read-out: CF (cardiac force)): 138%; change in vivo at 0.375 mg/kg (adult mongrel dogs [2]; read-out: HR (heart rate)): 22%; change in vivo at 0.375 mg/kg (adult mongrel dogs [2]; [6]): -10%; change in vivo at 0.375 mg/kg (adult mongrel dogs [2]; [7]): 46%
